Results published in US20260337153A1, “IONIZABLE AMINE LIPIDS” (Intellia Therapeutics, Inc., priority 2023, published 2026).
Like-named read-outs stand apart in the source and are kept apart here.

Columns and labels:
[1] = pKa of unformulated amine lipid by TNS fluorescence; type: physicochemical; conditions: sodium phosphate buffer, unformulated amine lipid, TNS, read-out: Lipid pKa
Experimental: The pKa of each amine lipid was determined according to the method in Jayaraman, et al. (Angew Chem Int Ed Engl 51(34), 2012, 8529-8533) with the following adaptations. The pKa was determined for unformulated amine lipid in ethanol. Lipid stock solutions (2.94 mM) were diluted into Sodium Phosphate Buffers (0.1 M, Boston Bioproducts) of different pH (pH-range: 4.5-9.0) yielding a final lipid concentration of approx. 100 μM. The test samples were supplemented with TNS {6-(p-Toluidino)-2-naphthalenesulfonic acid sodium salt}, incubated and the fluorescence intensity was measured using excitation and emission wavelengths of 321 nm and 448 nm, respectively. The recorded data were normalized and the respective pKa values were derived from sigmoidal fitting.

[2] = LNP encapsulation efficiency of RNA (Ribogreen fluorescence assay); type: physicochemical; conditions: sgRNA:mRNA 1:2
Experimental: LNP compositions are analyzed for average particle size, polydispersity index (pdi), total RNA content, encapsulation efficiency of RNA, and zeta potential. LNP compositions may be further characterized by lipid analysis, AF4-MALS, NTA, and/or cryo-EM.
Encapsulation efficiency is calculated as (Total RNA−Free RNA)/Total RNA. A fluorescence-based assay (Ribogreen®, ThermoFisher Scientific) is used to determine total RNA concentration and free RNA. LNP samples are diluted appropriately with 1×TE buffer containing 0.2% Triton-X 100 to determine total RNA or 1×TE buffer to determine free RNA. Standard curves are prepared by utilizing the starting RNA solution used to make the compositions and diluted in 1×TE buffer+/−0.2% Triton-X 100. Diluted RiboGreen® dye (according to the manufacturer's instructions) is then added to each of the standards and samples and allowed to incubate for approximately 10 minutes at room temperature, in the absence of light. A SpectraMax M5 Microplate Reader (Molecular Devices) is used to read the samples with excitation, auto cutoff and emission wavelengths set to 488 nm, 515 nm, and 525 nm respectively. Total RNA and free RNA are determined from the appropriate standard curves. Alternatively, the total RNA concentration can be determined by a reverse-phase ion-pairing (RP-IP) HPLC method. Triton X-100 is used to disrupt the LNPs, releasing the RNA. The RNA is then separated from the lipid components chromatographically by RP-IP HPLC and quantified against a standard curve using UV absorbance at 260 nm.
In vivo editing efficiency for materials delivered with formulations including various amine lipid (or ionizable lipid) compounds in Experiments 1 through 14 as described in Tables 3 and 4 was assessed. Editing was measured using G000534 (SEQ ID NO: 5) which targets the rat TTR gene. Lipids described above were assessed for efficacy through in vivo editing experiments. LNPs were formulated at a 1:2 w/w ratio of sgRNA (SEQ ID NO: 5) and Cas9 mRNA (SEQ ID NO: 3). In Experiments 1 through 13, lipid components of the LNP are formulated in a molar ratio of 50% ionizable lipid, 38% cholesterol, 9% DSPC, and 3% PEG2K-DMG. In Experiment 14, lipid components of the LNP are formulated in a molar ratio of 50% ionizable lipid, 38% cholesterol, 9% DSPC, and 3% C13 Ether. The final LNPs used in different in vivo editing experiments were characterized to determine the encapsulation efficiency (% E), polydispersity index (PDI), and average particle size (Z-avg and number mean) according to the analytical methods provided above. The pKa values of each of the following ionizable lipids were also measured to be in the range of about 5.8 to about 7.6.
In vivo editing efficiency for materials delivered with formulations including various combinations of amine lipid (or ionizable lipid) and PEG lipid compounds was assessed as described in Tables 5 and 6. Editing was measured using G000534 (SEQ ID NO: 5) which targets the rat TTR gene. Lipids described above were assessed for efficacy through in vivo editing experiments. LNPs were formulated at a 1:2 w/w ratio of sgRNA (SEQ ID NO: 5) and Cas9 mRNA (SEQ ID NO:3). Lipid components of the LNP are formulated in a molar ratio of 50% ionizable lipid, 38% cholesterol, 9% DSPC, and 3% of various PEG lipids (e.g., PEG2K-DMG, C13 Ether, C14 Ether). The final LNPs used in different in vivo editing experiments were characterized to determine the encapsulation efficiency (% E), polydispersity index (PDI), and average particle size (Z-avg and number mean) according to the analytical methods provided above. The pKa values of each of the following ionizable lipids were also measured to be in the range of about 5.8 to about 7.6.
In vivo editing efficiency for materials delivered with formulations including various amine lipid (or ionizable lipid) compounds as described in Tables 7 and 8 was assessed. […]

[3] = Table 3, Experiments 1-13, LNP 50% ionizable lipid, 38% cholesterol, 9% DSPC, 3% PEG2K-DMG

Compound	pKa ([1]; Table 2)	% E (encapsulation efficiency) [2, 3] [%]	further results
CCCCC/C=C\C/C=C\CCCCCCCC(=O)OCC(CCCCC(=O)OC(CCCC)CCCC)COC(=O)OCCCN(C)CC (centres unmarked) [Compound 13, 2-((((3-(ethyl(methyl)amino)propoxy)carbonyl)oxy)methyl)-7-(nonan-5-yloxy)-7-oxoheptyl (9Z,12Z)-octadeca-9,12-dienoate]	6.64	98	–
CCCCC/C=C\C/C=C\CCCCCCCC(=O)OCC(CCCCC(=O)OC(CCCCCC)CCCCCC)COC(=O)OCCCN(CC)CC (centres unmarked) [Compound 17, 2-((((3-(diethylamino)propoxy)carbonyl)oxy)methyl)-7-oxo-7-(tridecan-7-yloxy)heptyl (9Z,12Z)-octadeca-9,12-dienoate]	6.13	99	–
CCCCC/C=C\C/C=C\CCCCCCCC(=O)OCC(CCCCCCCCC(=O)OC(CCCCCCCC)CCCCCCCC)COC(=O)OCCCN(CC)CC (centres unmarked) [Compound 9, 2-((((3-(diethylamino)propoxy)carbonyl)oxy)methyl)-11-(heptadecan-9-yloxy)-11-oxoundecyl (9Z,12Z)-octadeca-9,12-dienoate]	5.87	99	–
CCCCCCCCC(CCCCCCCC)OC(=O)CCCC(=O)OCC(COC(=O)CCCC(=O)OC(CCCCCCCC)CCCCCCCC)COC(=O)OCCCN(CC)CC [Compound 2, O,O′-(2-((((3-(diethylamino)propoxy)carbonyl)oxy)methyl)propane-1,3-diyl) di(heptadecan-9-yl) diglutarate]	6.23	98	% E (encapsulation efficiency) ([2]; Table 3, Experiment 14, LNP with 3% C13 Ether): 99%
CCCCCCCCC(CCCCCCCC)CC(=O)OCCC(=O)OCC(COC(=O)CCCC(=O)OC(CCCCCCCC)CCCCCCCC)COC(=O)NCCN(CC)CC (centres unmarked) [Compound 63, 3-(((2-(diethylamino)ethyl)carbamoyl)oxy)-2-(((3-((3-octylundecanoyl)oxy)propanoyl)oxy)methyl)propyl heptadecan-9-yl Glutarate]	–	–	% E (encapsulation efficiency) ([2]; Table 7, LNP with 3% C13 Ether): 96%
CCCCC/C=C\C/C=C\CCCCCCCC(=O)OCC(CCCCCCCCC(=O)OC(CCCCCCCC)CCCCCCCC)COC(=O)NCCN(CC)CC (centres unmarked) [Compound 10, 2-((((2-(diethylamino)ethyl)carbamoyl)oxy)methyl)-11-(heptadecan-9-yloxy)-11-oxoundecyl (9Z,12Z)-octadeca-9,12-dienoate]	6.37	97	–
CCCCCCCCOC(CCC(=O)OCC(COC(=O)CCC(OCCCCCCCC)OCCCCCCCC)COC(=O)OCCCN(CC)CC)OCCCCCCCC [Compound 1, 2-((((3-(diethylamino)propoxy)carbonyl)oxy)methyl)propane-1,3-diyl bis(4,4-bis(octyloxy)butanoate)]	–	98	–
CCCCCCCCC(CCCCCCCC)OC(=O)CCCCCC(=O)OCC(COC(=O)CCCCCC(=O)OC(CCCCCCCC)CCCCCCCC)COC(=O)OCCCN(CC)CC [Compound 3, O′1,O1-(2-((((3-(diethylamino)propoxy)carbonyl)oxy)methyl)propane-1,3-diyl) 7,7′-di(heptadecan-9-yl) di(heptanedioate)]	–	96	–
CCCCCCC(CCCC)COC(=O)CCCCCC(=O)OCC(COC(=O)CCCCCC(=O)OCC(CCCC)CCCCCC)COC(=O)OCCCN(CC)CC (centres unmarked) [Compound 5, 7,7′-bis(2-butyloctyl) O′1,O1-(2-((((3-(diethylamino)propoxy)carbonyl)oxy)methyl)propane-1,3-diyl) di(heptanedioate)]	–	97	–

Now from value to compound, other results behind:

pKa ([1]; Table 2)	% E (encapsulation efficiency) [2, 3] [%]	Compound	further results
6.08	99	CCCCC/C=C\C/C=C\CCCCCCCC(=O)OCC(CCCCCCC(=O)OC(CCCCCC)CCCCCC)COC(=O)OCCCN(CC)CC (centres unmarked) [Compound 18, 2-((((3-(diethylamino)propoxy)carbonyl)oxy)methyl)-9-oxo-9-(tridecan-7-yloxy)nonyl (9Z,12Z)-octadeca-9,12-dienoate]	–
5.7	99	CCCCCCCCC(CCCCCCCC)OC(=O)CCCC(=O)OCC(COC(=O)CCCC(=O)OC(CCCCCCCC)CCCCCCCC)COC(=O)OCCCN1CCCCC1 [Compound 32, di(heptadecan-9-yl) O,O′-(2-((((3-(piperidin-1-yl)propoxy)carbonyl)oxy)methyl)propane-1,3-diyl) diglutarate]	–
6.66	99	CCCCCCC(CCCCCC)OC(=O)CCCC(=O)OCC(COC(=O)CCCC(=O)OC(CCCCCC)CCCCCC)COC(=O)NCCN(CC)CC [Compound 37, O,O′-(2-((((2-(diethylamino)ethyl)carbamoyl)oxy)methyl)propane-1,3-diyl) di(tridecan-7-yl) diglutarate]	–
–	84	CCCCCCCCCOC(=O)CCCCCCCN(CCO)CCCCCCCC(=O)OC(CCCCCCCC)CCCCCCCC [Compound 55]	pKa ([1]; additional ionizable lipids (53-61)): 6.6
6.8	100	CCCCCCCCC(CCCCCCCC)OC(=O)CCCC(=O)OCC(COC(=O)CCCC(=O)OC(CCCCCCCC)CCCCCCCC)COC(=O)OCCCN(C)C [Compound 31, O,O′-(2-((((3-(dimethylamino)propoxy)carbonyl)oxy)methyl)propane-1,3-diyl) di(heptadecan-9-yl) diglutarate]	–
–	94	CCCCCCCCOC(CCC(=O)OCC(COC(=O)NCCN(CC)CC)COC(=O)C(CCCC)CCCCCC)OCCCCCCCC (centres unmarked) [Compound 48, 3-((4,4-bis(octyloxy)butanoyl)oxy)-2-((((2-(diethylamino)ethyl)carbamoyl)oxy)methyl)propyl 2-butyloctanoate]	–
–	98	CCCCCCCCCCCC(=O)OCC(COC(=O)CCC(OCCCCCCCC)OCCCCCCCC)COC(=O)OCCCN(CC)CC (centres unmarked) [Compound 41, 3-((4,4-bis(octyloxy)butanoyl)oxy)-2-((((3-(diethylamino)propoxy)carbonyl)oxy)methyl)propyl Dodecanoate]	–
–	98	CCCCCCCCC(CCCCCCCC)OC(=O)CCCC(=O)OCC(C)(COC(=O)CCCC(=O)OC(CCCCCCCC)CCCCCCCC)COC(=O)NCCN(CC)CC [Compound 36, O,O′-(2-((((2-(diethylamino)ethyl)carbamoyl)oxy)methyl)-2-methylpropane-1,3-diyl) di(heptadecan-9-yl) diglutarate]	–
–	98	CCCCCCCCOC(CCC(=O)OCC(COC(=O)CC(CCCC)CCCCCC)COC(=O)OCCCN(CC)CC)OCCCCCCCC (centres unmarked) [Compound 43, 3-((4,4-bis(octyloxy)butanoyl)oxy)-2-((((3-(diethylamino)propoxy)carbonyl)oxy)methyl)propyl 3-butylnonanoate]	–
